Laboratory results published in patent US12708620B2, “Prodrugs and medical uses thereof” (priority 2018, dated 2026).

Assays:
[1] = test system: MDA-MB-436 tumor xenograft; assay: triple negative breast cancer xenograft model; type: in vivo, BALB/c Nude Mice; details: MDA-MB-436 xenograft, single treatment cycle; for Anti-tumor effect: 600 mg/kg IP, hypoxic status confirmed, methanesulfonate, 600 mg/kg
Protocol: All animal models were established as xenograft model in BALB/c Nude Mice (6-8 weeks old, 17-23 grams, maintained in standard conditions and diet), following approved IACUC (Institutional Animal Care and Use Committees) protocols. Cpd.11 Ms was formulated using 2% dimethyl sulfoxide (DMSO in water for injection, starting from a Cpd.11 Ms main preparation (100-60 mg/ml in 2% DMSO in water for injection).
After tumor cell inoculation, the animals were checked daily for morbidity and mortality. Before commencement of treatment all animals were weighed and the tumor volumes were measured using a caliper. The treatments were started when the mean tumor size reached approx. 250 mm^3. Each treated/control group contained 10 mice that were randomly assigned and injected daily for 5 days. The date of tumor cell inoculation was denoted as day 0 (thus injections were performed at day 1, 2, 3, 4, and 5). At the time of routine monitoring, the animals were checked for any effects of tumor growth and treatments on normal behavior such as mobility, visual estimation of food and water consumption, body weight gain/loss (body weights were measured daily during the 5-day treatment and thrice weekly after treatment), eye/hair matting and any other abnormal effect. Death and observed clinical signs were recorded on the basis of the numbers of animals within each subset. Tumor volumes were measured daily during the 5-day treatment and thrice weekly after treatment in two dimensions using a caliper, and the volume was expressed in mm3 using the formula: V=0.5 a×b2 where a and b are the long and short diameters of the tumor, respectively. The entire procedures of dosing as well as tumor and body weight measurement were conducted in a Laminar Flow Cabinet. Individual mice were euthanized by cervical dislocation when the tumor size reached 1400-1600 mm3. The surrogate endpoint for survival was calculated and indicated as TVx4 (initial tumor volume times 4). Statistical analysis of difference in tumor volume among the groups was conducted at the end of experiment using Independent-Samples T Test. All data were analyzed in SPSS (Statistical Product and Service Solutions) version 18.0 (IBM, Armonk, NY, U.S.). P-values were rounded to three decimal places, with the exception that raw P-values less than 0.001 were stated as P<0.001. All tests were two-sided. P<0.05 was considered to be statistically significant.
For the MDA-MB-436 tumor (ATCC: HTB-130; Passage: P4) cells were maintained in vitro as a monolayer culture in L-15 medium supplemented with 10% heat inactivated fetal bovine serum at 37° C. in an atmosphere of 100% air. […] The cells growing in an exponential growth phase were harvested and counted for tumor inoculation. […]

[2] = test system: panel of cancer cell lines; assay: cytotoxicity across the tested cancer cell lines (summary statements); type: cell-based, human
Protocol: The IC50 values were obtained using the resazurin-based potency assay under anoxic (<0.01% O2) and/or normoxic conditions (21% O2). The hypoxia cytotoxicity ratio (HCR) is calculated as the ratio of IC50 value […] (HCR=IC50 normoxia/IC50 anoxia).
For anoxic condition, the complete medium for each cell line (25 ml in a T25 or 80 ml in a T80) was equilibrated in the anoxic chamber 48 h before use to allow an as large as possible interchange between media and atmosphere, agitating the flask once a day and just before use. The 96-well plates for cell seeding and the 96-well plates for preparation of a mother plate containing the compound to be tested (e.g. Cpd.11 Ms) at appropriate concentrations as well as disposable reagent reservoirs and pipet tips that are required for cell seeding under anoxic conditions were placed in anoxia at least 72 h before use. […]
Cell seeding was performed starting from a cell suspension (70% confluent flasks of cells). Appropriate cell numbers/volumes were used at the pre-determined cell density (typically 100 μl/well) as determined by performing a growth curve experiment were calculated. […]

SMILES: CCN1CCN(C(=O)c2cc(N(CCBr)CCOS(C)(=O)=O)c(S(C)(=O)=O)cc2[N+](=O)[O-])CC1.CS(=O)(=O)O [Cpd.11 Ms, 4-(5-((2-bromoethyl) (2-((methylsulfonyl)oxy)ethyl)amino)-4-(methylsulfonyl)-2-nitrobenzoyl)-1-ethylpiperazin-1-ium methanesulfonate]
- Anti-tumor effect ([1]; listed as Cpd.11Ms): Strong impact,
- Anti-tumor effect [1]: significant regression of the tumour
- effects on body weight ([1]; IP): absence of effects on body weight
- median surrogate survival index (TVx4) compared to vehicle treated animals ([1]; IP): more than double
- hypoxic cytotoxic ratio ([2]; across cell lines): ≥ 10
- cytotoxicity against cancer cell lines resistant to cisplatin and/or chlorambucil ([2]; pre-clinical models): highly cytotoxic
